Assay results as given in patent publication US8940909B2, “Indicator platform” (Biosynth AG, priority 2009, dated 2015).

How the values were obtained:
Experiment in all cases: IO staining of colonies of beta-D-galactosidase positive/negative bacteria (Table IVb)
Format in all cases: cell-based
Shigella sonnei 133 = settings: Shigella sonnei strain 133, b-gal +/−; 24 h on Nutrient Agar, 150 mg/l indicator, 100 mg/l IPTG
[1] = test system: Escherichia coli (O157:H7) 60; settings: Escherichia coli (O157:H7) strain 60, b-gal +; 24 h on Nutrient Agar, 150 mg/l indicator, 100 mg/l IPTG
[2] = test system: Yersinia enterocolitica 175; settings: Yersinia enterocolitica strain 175, b-gal +/−; 24 h on Nutrient Agar, 150 mg/l indicator, 100 mg/l IPTG; on G: Growth of colonies: key: −: absent; +/−: weak; +: strong; ++: very strong
[3] = test system: Staphylococcus saprophyticus 273; settings: Staphylococcus saprophyticus strain 273, b-gal +; 24 h on Nutrient Agar, 150 mg/l indicator, 100 mg/l IPTG; on G: Growth of colonies: key: −: absent; +/−: weak; +: strong; ++: very strong
Escherichia coli 61 = settings: Escherichia coli strain 61, b-gal +; 24 h on Nutrient Agar, 150 mg/l indicator, 100 mg/l IPTG
[4] = test system: Pseudomonas aeruginosa 168; settings: Pseudomonas aeruginosa strain 168, b-gal −, 24 h on Nutrient Agar, 150 mg/l indicator, 100 mg/l IPTG; for F: Fluorescence of colonies: footnote 1: blue autofluorescence; on C: Color of colonies: key: −: absent; +/−: weak; +: strong; ++: very strong; on G: Growth of colonies: key: −: absent; +/−: weak; +: strong; ++: very strong
[5] = test system: Salmonella enteritidis 43; settings: Salmonella enteritidis strain 43, b-gal −; 24 h on Nutrient Agar, 150 mg/l indicator, 100 mg/l IPTG; further: key: −: absent; +/−: weak; +: strong; ++: very strong
[6] = test system: Shigella dysenteriae Serovar 1 131; settings: Shigella dysenteriae Serovar 1 strain 131, b-gal +/−; 24 h on Nutrient Agar, 150 mg/l indicator, 100 mg/l IPTG
Staphylococcus aureus 2 = settings: Staphylococcus aureus strain 2, b-gal −, 24 h on Nutrient Agar, 150 mg/l indicator, 100 mg/l IPTG; for C: Color of colonies: footnote 2: S. aureus natural color
[7] = test system: Staphylococcus intermedius 31; settings: Staphylococcus intermedius strain 31, b-gal +; 24 h on Nutrient Agar, 150 mg/l indicator, 100 mg/l IPTG
Aeromonas hydrophila 292 = settings: Aeromonas hydrophila strain 292, b-gal +; 24 h on Nutrient Agar, 150 mg/l indicator, 100 mg/l IPTG
[8] = test system: Listeria monocytogenes (4b) 290; settings: Listeria monocytogenes (4b) strain 290, b-gal −; 24 h on Nutrient Agar, 150 mg/l indicator, 100 mg/l IPTG; on C: Color of colonies: key: −: absent; +/−: weak; +: strong; ++: very strong; on F: Fluorescence of colonies: key: −: absent; +/−: weak; +: strong; ++: very strong
Escherichia coli 270 = settings: Escherichia coli strain 270, b-gal +; 24 h on Nutrient Agar, 150 mg/l indicator, 100 mg/l IPTG
Bacillus subtilis 65 = settings: Bacillus subtilis strain 65, b-gal −; 24 h on Nutrient Agar, 150 mg/l indicator, 100 mg/l IPTG
Citrobacter freundii 181 = settings: Citrobacter freundii strain 181, b-gal +; 24 h on Nutrient Agar, 150 mg/l indicator, 100 mg/l IPTG
[9] = test system: Streptococcus agalactiae 195; settings: Streptococcus agalactiae strain 195, b-gal −; 24 h on Nutrient Agar, 150 mg/l indicator, 100 mg/l IPTG; on C: Color of colonies: key: −: absent; +/−: weak; +: strong; ++: very strong; on F: Fluorescence of colonies: key: −: absent; +/−: weak; +: strong; ++: very strong
[10] = test system: Klebsiella pneumoniae 164; settings: Klebsiella pneumoniae strain 164, b-gal +; 24 h on Nutrient Agar, 150 mg/l indicator, 100 mg/l IPTG; on C: Color of colonies: key: −: absent; +/−: weak; +: strong; ++: very strong; on G: Growth of colonies: key: −: absent; +/−: weak; +: strong; ++: very strong
Shigella boydii 135 = settings: Shigella boydii strain 135, b-gal −; 24 h on Nutrient Agar, 150 mg/l indicator, 100 mg/l IPTG
Enterobacter cloacae 245 = settings: Enterobacter cloacae strain 245, b-gal +; 24 h on Nutrient Agar, 150 mg/l indicator, 100 mg/l IPTG
Serratia marcescens 40 = settings: Serratia marcescens strain 40, b-gal +; 24 h on Nutrient Agar, 150 mg/l indicator, 100 mg/l IPTG
[11] = test system: Enterobacter aerogenes 242; settings: Enterobacter aerogenes strain 242, b-gal +; 24 h on Nutrient Agar, 150 mg/l indicator, 100 mg/l IPTG; on C: Color of colonies: key: −: absent; +/−: weak; +: strong; ++: very strong; on G: Growth of colonies: key: −: absent; +/−: weak; +: strong; ++: very strong

Compound: 5-Bromo-4-chloro-1H-indol-3-yl-beta-D-galactopyranoside [Indicator I4a, reference compound]
- C: Color of colonies (Shigella sonnei 133): +
- F: Fluorescence of colonies (Shigella sonnei 133): −
- G: Growth of colonies (Shigella sonnei 133): +
- C: Color of colonies [1]: ++
- F: Fluorescence of colonies [1]: −
- G: Growth of colonies [1]: +
- C: Color of colonies [2]: −
- F: Fluorescence of colonies [2]: −
- G: Growth of colonies [2]: +
- C: Color of colonies [3]: +
- F: Fluorescence of colonies [3]: −
- G: Growth of colonies [3]: +
- C: Color of colonies (Escherichia coli 61): ++
- F: Fluorescence of colonies (Escherichia coli 61): −
- G: Growth of colonies (Escherichia coli 61): +
- C: Color of colonies [4]: −
- G: Growth of colonies [4]: +
- F: Fluorescence of colonies [4]: +^1
- C: Color of colonies [5]: −
- F: Fluorescence of colonies [5]: −
- G: Growth of colonies [5]: +
- C: Color of colonies [6]: −
- F: Fluorescence of colonies [6]: −
- G: Growth of colonies [6]: +
- F: Fluorescence of colonies (Staphylococcus aureus 2): −
- G: Growth of colonies (Staphylococcus aureus 2): +
- C: Color of colonies (Staphylococcus aureus 2): y^2
- C: Color of colonies [7]: +
- F: Fluorescence of colonies [7]: −
- G: Growth of colonies [7]: +
- C: Color of colonies (Aeromonas hydrophila 292): +
- F: Fluorescence of colonies (Aeromonas hydrophila 292): −
- G: Growth of colonies (Aeromonas hydrophila 292): +
- C: Color of colonies [8]: −
- F: Fluorescence of colonies [8]: −
- G: Growth of colonies [8]: +/−
- C: Color of colonies (Escherichia coli 270): ++
- F: Fluorescence of colonies (Escherichia coli 270): −
- G: Growth of colonies (Escherichia coli 270): +
- C: Color of colonies (Bacillus subtilis 65): −
- F: Fluorescence of colonies (Bacillus subtilis 65): −
- G: Growth of colonies (Bacillus subtilis 65): +
- C: Color of colonies (Citrobacter freundii 181): +
- F: Fluorescence of colonies (Citrobacter freundii 181): −
- G: Growth of colonies (Citrobacter freundii 181): +
- C: Color of colonies [9]: −
- F: Fluorescence of colonies [9]: −
- G: Growth of colonies [9]: +/−
- C: Color of colonies [10]: ++
- F: Fluorescence of colonies [10]: −
- G: Growth of colonies [10]: +
- C: Color of colonies (Shigella boydii 135): −
- F: Fluorescence of colonies (Shigella boydii 135): −
- G: Growth of colonies (Shigella boydii 135): +
- C: Color of colonies (Enterobacter cloacae 245): ++
- F: Fluorescence of colonies (Enterobacter cloacae 245): −
- G: Growth of colonies (Enterobacter cloacae 245): +
- C: Color of colonies (Serratia marcescens 40): +
- F: Fluorescence of colonies (Serratia marcescens 40): −
- G: Growth of colonies (Serratia marcescens 40): +
- C: Color of colonies [11]: ++
- F: Fluorescence of colonies [11]: −
- G: Growth of colonies [11]: +

Compound: O=C(c1ccccc1)c1ccccc1-n1cc(O[C@@H]2O[C@H](CO)[C@H](O)[C@H](O)[C@H]2O)c2ccc(Cl)cc21 [Indicator I21a, 1-(2-Benzoylphenyl)-6-chloro-1H-indol-3-yl-beta-D-galactopyranoside]
- C: Color of colonies (Shigella sonnei 133): +
- F: Fluorescence of colonies (Shigella sonnei 133): +
- G: Growth of colonies (Shigella sonnei 133): +
- C: Color of colonies [1]: +
- F: Fluorescence of colonies [1]: +
- G: Growth of colonies [1]: +
- C: Color of colonies [2]: −
- F: Fluorescence of colonies [2]: +/−
- G: Growth of colonies [2]: +
- C: Color of colonies [3]: +
- F: Fluorescence of colonies [3]: +
- G: Growth of colonies [3]: +
- C: Color of colonies (Escherichia coli 61): +
- F: Fluorescence of colonies (Escherichia coli 61): +
- G: Growth of colonies (Escherichia coli 61): +
- C: Color of colonies [4]: −
- G: Growth of colonies [4]: +
- F: Fluorescence of colonies [4]: +^1
- C: Color of colonies [5]: −
- F: Fluorescence of colonies [5]: −
- G: Growth of colonies [5]: +
- C: Color of colonies [6]: −
- F: Fluorescence of colonies [6]: −
- G: Growth of colonies [6]: +
- F: Fluorescence of colonies (Staphylococcus aureus 2): −
- G: Growth of colonies (Staphylococcus aureus 2): +/−
- C: Color of colonies (Staphylococcus aureus 2): −
- C: Color of colonies [7]: +/−
- F: Fluorescence of colonies [7]: +/−
- G: Growth of colonies [7]: +/−
- C: Color of colonies (Aeromonas hydrophila 292): +
- F: Fluorescence of colonies (Aeromonas hydrophila 292): +
- G: Growth of colonies (Aeromonas hydrophila 292): +
- C: Color of colonies [8]: −
- F: Fluorescence of colonies [8]: −
- G: Growth of colonies [8]: +/−
- C: Color of colonies (Escherichia coli 270): ++
- F: Fluorescence of colonies (Escherichia coli 270): +
- G: Growth of colonies (Escherichia coli 270): +
- C: Color of colonies (Bacillus subtilis 65): −
- F: Fluorescence of colonies (Bacillus subtilis 65): −
- G: Growth of colonies (Bacillus subtilis 65): +/−
- C: Color of colonies (Citrobacter freundii 181): +
- F: Fluorescence of colonies (Citrobacter freundii 181): +
- G: Growth of colonies (Citrobacter freundii 181): +
- C: Color of colonies [9]: −
- F: Fluorescence of colonies [9]: −
- G: Growth of colonies [9]: +/−
- C: Color of colonies [10]: +
- F: Fluorescence of colonies [10]: +
- G: Growth of colonies [10]: +
- C: Color of colonies (Shigella boydii 135): −
- F: Fluorescence of colonies (Shigella boydii 135): −
- G: Growth of colonies (Shigella boydii 135): +
- C: Color of colonies (Enterobacter cloacae 245): +
- F: Fluorescence of colonies (Enterobacter cloacae 245): +
- G: Growth of colonies (Enterobacter cloacae 245): +
- C: Color of colonies (Serratia marcescens 40): ++
- F: Fluorescence of colonies (Serratia marcescens 40): +
- G: Growth of colonies (Serratia marcescens 40): +
- C: Color of colonies [11]: +
- F: Fluorescence of colonies [11]: +
- G: Growth of colonies [11]: +
